In article PMC10510716:

Assay: Paal-Knorr pyrrole formation between a side-chain 1,4-diketone (DOP1, unmasked from 5-methylfuran in TFA/m-cresol 9:1) and a side-chain hydrazide (Nu2) or aminooxy group (Nu5); crude redissolved in mQ water
Settings: the molecule shown is the open-chain precursor, 29-membered ring, pH ~2.5, 5.0 mM

Compound `CC[C@H](C)[C@H](NC(=O)[C@H](CCC(=O)O)NC(=O)[C@H](CCCNC(=N)N)NC(=O)CNC(=O)[C@H](CCCCN)NC(=O)[C@H](CC(C)C)NC(=O)[C@H](Cc1c[nH]cn1)NC(=O)CNC(=O)[C@@H]1CCCN1C(C)=O)C(=O)NCC(=O)N[C@@H](CC(C)C)C(=O)N[C@@H](Cc1c[nH]c2ccccc12)C(=O)N[C@@H](Cc1ccc(O)cc1)C(=O)N[C@@H](C)C(=O)N[C@@H](CCCNC(=O)CON)C(=O)N[C@@H](CCCCN)C(=O)N[C@@H](CCC(N)=O)C(=O)NCC(=O)N[C@@H](CCCNC(=O)CCC(=O)CCC(C)=O)C(=O)N[C@@H](CCCCN)C(=O)N[C@@H](CC(N)=O)C(=O)N[C@@H](CCCCN)C(N)=O` has a ring closure, overall yield of 3.48%.
